Marks after values point to notes of the source that are not given here.
Assays:
[1] = system: mice with concanavalin A (Con A) induced liver disorder; experiment: Concanavalin A induced liver disorder mice: GPT, GOT, liver necrosis score (Experiment 12); format: in vivo, BALB/c mice; design: Liver function GPT / Liver function GOT: unit not given here; conditions: Con A 15 mg/kg i.v.; for Liver function GOT / Liver function GPT: serum 20 hours after Con A; for Conditions of liver tissue, Necrosis (average score): grades mild (1), moderate (2), severe (3)
Procedure: “TYPE IV”, a Con A specimen commercialized by Sigma-Aldrich Corporation, St. Louis, Mo. USA, was dissolved in physiological saline and intravenously administered to all the five mice in each six groups at a dose of 15 mg/0.2 mL. […] The five mice in the remaining one group as a control were intravenously administered with 0.2 mL/head of physiological saline, simultaneously with Con A (Experiment group 1).
For the mice in each group, they were collected blood at 20 hours after administering Con A, followed by assaying the activity of GPT and GOT in their sera with “TRANSAMINASE CII-TEST WAKO”, a commercialized assay kit produced by Wako Pure Chemical Industries Ltd., Tokyo, Japan, for use as an index for liver disorder due to hepatitis. […] The tissue specimens were stained with hematoxylin-eosin staining, followed by calculating an average of scores for judgement on the conditions of necrosis of liver tissues by microscopic observation, for use as an index for liver disorder. The results are in Table 12 in parallel. The conditions of necrosis of liver tissues were evaluated based on a microscopic observation standard of three grades of “mild (1)”, “moderate (2)”, and “severe (3)” and scored before determining the average for each group.

[2] = system: mice with colitis induced by dextran sulfate sodium; experiment: Dextran sulfate sodium colitis mice: diarrhea/hematochezia scores, DAI, haptoglobin (Experiment 13); format: in vivo, C57BL/6 mice; conditions: dextran sulfate sodium intake; for Content of haptoglobin: blood on 11th day
Procedure: Dextran sulfate sodium (commercialized by MP Biomedicals, CA, USA, molecular weight of 36,000 to 50,000) was dissolved in tap water, and all the mice of these five groups consisting of eight heads each were allowed to freely take the solution for five days (Experiment groups 2 to 5). […] The eight mice of the remaining one group were administered through a gastric tube with PBS once a day at a dose of 0.2 mL/head over 11 days from the day of initiating the administration of dextran sulfate sodium (Experiment group 2). The five mice of one group, which had not been administered with dextran sulfate sodium, were bred for 11 days on the normal feed while allowing them to take tap water freely (Experiment group 1).
The mice were weighed and their degree of diarrhea and hematochezia were macroscopically observed every day over 11 days from the day of initiating the intake of dextran sulfate sodium. The body weight reduction percentage (%) was determined by dividing the body weight of a mouse at 11th day after initiating the intake of dextran sulfate sodium by the body weight of the mouse at the day of initiating the intake, and multiplying the value by 100, and subtracting the resulting value from 100. The scores of diarrhea and hematochezia and the body weight reduction percentage (%) in each mouse were scored according to the criteria as shown in Table 13. For each group, the average of the total scores of diarrhea and hematochezia on days ranging from the day (intake day 0) of initiating the intake of dextran sulfate sodium to 11th day therefrom (intake day 10) are determined and shown in Table 14. The total scores of diarrhea, hematochezia, and body weight reduction percentage for each mouse at 11th day (intake day 10) after initiating the intake of dextran sulfate sodium are calculated for disease activity index (DAI) used as an index for colitis, averaged for each group, and shown in Table 14. On 11th day after initiating the intake of dextran sulfate sodium, each mouse was collected blood, followed by assaying haptoglobin or an acute phase protein, as an index for inflammatory, on an ELISA kit commercialized by Life Diagnostics USA, and averaging the data for each group. The results are in Table 14 in parallel. Since one mouse in Experiment group 2 administered with only dextran sulfate sodium was dead at 11th day after initiating the intake of dextran sulfate sodium, the results of Experiment group 2 at 11th day (intake day 10) after initiating the intake of dextran sulfate sodium represent the average of seven mice.

[3] = system: TNF-α production from NHEK cells; experiment: TNF-α production from NHEK cells irradiated with ultraviolet B (Experiment 17); format: cell-based, human; conditions: for TNF-α: NHEK cells, stimulation by ultraviolet rays; for production of TNF-α from NHEK cells induced by ultraviolet rays: UVB 40 mJ/cm^2, supernatant at six hours
Procedure: “CELLMATRIX TYPE IV”, a product name of collagen for tissue culture commercialized by Nitta Gelatin Inc., Osaka, Japan, which had been diluted with PBS(K-) by 10 times, was previously placed in “FALCON 35-3001”, a product name of 35 mm petri dish commercialized by Becton Dickinson and Company, NJ, USA, in an amount of 1 mL/plate, and then allowed to stand at ambient temperature for 10 min, followed by removing an excessive amount of CELLMATRIX, drying the petri dish in air, and washing it thrice with PBS(K-). […] The cells were cultured at 37° C. in a 5% v/v CO2 incubator. On the 2nd and 4th days after the cell inoculation, the medium was replaced with EpiLife medium free of EDGS (1 mL/plate). On the 5th day after the cell inoculation, the supernatant was removed, and the petri dish was washed twice by adding 1 mL/petri dish of Hanks' balanced salt solution (called “HBSS (−) buffer”, hereinafter). Further, 2 mL/petri dish of HBSS (−) buffer was added to the petri dish which was then placed in the position 15 cm apart from an ultraviolet ray light source and irradiated with 40 mJ/cm^2 of ultraviolet B radiation. […] As an ultraviolet ray light source, “NS-8F”, a light source for actual use commercialized by Sanwa Medical Co., Ltd., Okayama, Japan, equipped with an ultraviolet B radiation lamp was used, and the radiation dose was measured on “UVR-305/365D (II)”, an ultraviolet ray meter commercialized by Topcon Corporation, Tokyo, Japan. TNF-α was assayed by the same method as in Experiment 2. The remaining other cytokines were assayed with an IL-1α assay kit, commercialized by R & D Systems Inc., MN, USA, and an IL-8 assay kit commercialized by BioLegend, CA, USA.

[4] = system: IL-12 production from mouse intraperitoneal macrophages; experiment: IC50 for IL-12 production from mouse macrophages, LPS + IFN-γ (Experiment 19); format: cell-based; conditions: for IC50: Mus musculus, Macrophage, 20 h, read-out: IC50 Concentration IL-12
Text: After completion of the culture, the supernatant in each well was collected and assayed for cytokines and prostaglandin E2 (called “PGE2”, hereinafter) with ELISA.

Nc1ncnc2c1ncn2[C@@H]1O[C@H](CO)[C@@H](O)[C@H]1O [AN, adenosine]
Liver function GOT ([1]; 127 mg/kg i.v. simultaneously): 4130* | Liver function GPT ([1]; 127 mg/kg i.v. simultaneously): 1917 | Conditions of liver tissue, Necrosis (average score) ([1]; 127 mg/kg i.v.): 2.5 | Content of haptoglobin ([2]; 94 mg/kg orally once a day): 4.0 mg/mL | Total scores of diarrhea and hematochezia, day 0 ([2]; 94 mg/kg orally once a day, day 0): 0 | Total scores of diarrhea and hematochezia, day 1 ([2]; 94 mg/kg orally once a day): 0 | Total scores of diarrhea and hematochezia, day 2 ([2]; 94 mg/kg orally once a day): 0 | Total scores of diarrhea and hematochezia, day 3 ([2]; 94 mg/kg orally once a day): 0.3 | Total scores of diarrhea and hematochezia, day 4 ([2]; 94 mg/kg orally once a day): 1.0 | Total scores of diarrhea and hematochezia, day 5 ([2]; 94 mg/kg orally once a day): 1.4 | Total scores of diarrhea and hematochezia, day 6 ([2]; 94 mg/kg orally once a day): 1.3 | Total scores of diarrhea and hematochezia, day 7 ([2]; 94 mg/kg orally once a day): 1.4 | Total scores of diarrhea and hematochezia, day 8 ([2]; 94 mg/kg orally once a day): 1.4 | Total scores of diarrhea and hematochezia, day 9 ([2]; 94 mg/kg orally once a day): 1.4 | DAI (total scores of diarrhea, hematochezia, and body weight reduction percentage), day 10 ([2]; 94 mg/kg orally once a day): 4.6 | Total scores of diarrhea and hematochezia, day 10 ([2]; 94 mg/kg orally once a day): 1.6 | TNF-α ([3]; 1 μM): 144 pg/mL | TNF-α ([3]; 5 μM): 138 pg/mL | TNF-α ([3]; 10 μM): 138 pg/mL | production of TNF-α from NHEK cells induced by ultraviolet rays [3]: did not influence | IC50 [4]: 14 µM

Nc1c2ncn([C@@H]3O[C@H](CO)[C@@H](O)[C@H]3O)c2nc[n+]1[O-] [ANO, adenosine N1-oxide]
Liver function GOT ([1]; 45 mg/kg i.v. simultaneously): 2941++ | Liver function GPT ([1]; 45 mg/kg i.v. simultaneously): 1477* | Conditions of liver tissue, Necrosis (average score) ([1]; 45 mg/kg i.v.): 2.4 | Liver function GOT ([1]; 75 mg/kg i.v. simultaneously): 2654** | Liver function GPT ([1]; 75 mg/kg i.v. simultaneously): 1229* | Liver function GOT ([1]; 135 mg/kg i.v. simultaneously): 1343** | Liver function GPT ([1]; 135 mg/kg i.v. simultaneously): 687** | Conditions of liver tissue, Necrosis (average score) ([1]; 135 mg/kg i.v.): 2.0 | Content of haptoglobin ([2]; 33 mg/kg orally once a day): 3.7 mg/mL | Total scores of diarrhea and hematochezia, day 0 ([2]; 33 mg/kg orally once a day, day 0 after initiating the intake): 0 | Total scores of diarrhea and hematochezia, day 1 ([2]; 33 mg/kg orally once a day): 0 | Total scores of diarrhea and hematochezia, day 2 ([2]; 33 mg/kg orally once a day): 0 | Total scores of diarrhea and hematochezia, day 3 ([2]; 33 mg/kg orally once a day): 0 | Total scores of diarrhea and hematochezia, day 4 ([2]; 33 mg/kg orally once a day): 0.3 | Total scores of diarrhea and hematochezia, day 5 ([2]; 33 mg/kg orally once a day): 0.3 | Total scores of diarrhea and hematochezia, day 6 ([2]; 33 mg/kg orally once a day): 0.5 | Total scores of diarrhea and hematochezia, day 7 ([2]; 33 mg/kg orally once a day): 0.6 | Total scores of diarrhea and hematochezia, day 8 ([2]; 33 mg/kg orally once a day): 0.9 | Total scores of diarrhea and hematochezia, day 9 ([2]; 33 mg/kg orally once a day): 0.8 | DAI (total scores of diarrhea, hematochezia, and body weight reduction percentage), day 10 ([2]; 33 mg/kg orally once a day): 3.8* | Total scores of diarrhea and hematochezia, day 10 ([2]; 33 mg/kg orally once a day): 0.7 | Content of haptoglobin ([2]; 100 mg/kg orally once a day): 2.9* mg/mL | Total scores of diarrhea and hematochezia, day 0 ([2]; 100 mg/kg orally once a day, day 0): 0 | Total scores of diarrhea and hematochezia, day 1 ([2]; 100 mg/kg orally once a day): 0 | Total scores of diarrhea and hematochezia, day 2 ([2]; 100 mg/kg orally once a day): 0 | Total scores of diarrhea and hematochezia, day 3 ([2]; 100 mg/kg orally once a day): 0.3 | Total scores of diarrhea and hematochezia, day 4 ([2]; 100 mg/kg orally once a day): 0.4 | Total scores of diarrhea and hematochezia, day 5 ([2]; 100 mg/kg orally once a day): 0.4 | Total scores of diarrhea and hematochezia, day 6 ([2]; 100 mg/kg orally once a day): 0.5 | Total scores of diarrhea and hematochezia, day 7 ([2]; 100 mg/kg orally once a day): 0.6 | Total scores of diarrhea and hematochezia, day 8 ([2]; 100 mg/kg orally once a day): 0.6 | Total scores of diarrhea and hematochezia, day 9 ([2]; 100 mg/kg orally once a day): 0.7 | DAI (total scores of diarrhea, hematochezia, and body weight reduction percentage), day 10 ([2]; 100 mg/kg orally once a day): 3.4** | Total scores of diarrhea and hematochezia, day 10 ([2]; 100 mg/kg orally once a day): 0.6 | TNF-α ([3]; 1 μM): 119 pg/mL | TNF-α ([3]; 5 μM): 76 pg/mL | TNF-α ([3]; 10 μM): 76 pg/mL | production of TNF-α from NHEK cells induced by ultraviolet rays [3]: inhibited | IC50 [4]: 1.4 µM | inhibitory action on the production of IL-12 (in words) ([4]; mouse intraperitoneal macrophages stimulated with LPS and IFN-γ): showed an inhibitory action

From US9757408B2 (Hayashibara Co., Ltd., priority 2010, dated 2017)
